The test system of one data set is HLM. Particulars: anlotinib as substrate in HLMs.
Data set [1] concerns anlotinib metabolism in HLM. Kind of data set: in vitro. Particulars: human, pH 7.4.
The target in data set [2] is T1, CYP3A5 (Homo sapiens, UniProt P20815). Kind of data set: biochemical.
A further data set deals with human recombinant CYP3A4 (Homo sapiens, UniProt P08684). Particulars: calculated from ISEF (0.49) and CLint,rhCYP.
Another data set in a line: in vitro. As to conditions: human, microsomes, pH 7.4.
Another data set has as its system P-gp. Particulars: previous studies and drug package inserts; cited from earlier work.
Data set [3] addresses T2, CYP1A2 (Homo sapiens, UniProt P05177).
T2 sequence (P05177 1-516): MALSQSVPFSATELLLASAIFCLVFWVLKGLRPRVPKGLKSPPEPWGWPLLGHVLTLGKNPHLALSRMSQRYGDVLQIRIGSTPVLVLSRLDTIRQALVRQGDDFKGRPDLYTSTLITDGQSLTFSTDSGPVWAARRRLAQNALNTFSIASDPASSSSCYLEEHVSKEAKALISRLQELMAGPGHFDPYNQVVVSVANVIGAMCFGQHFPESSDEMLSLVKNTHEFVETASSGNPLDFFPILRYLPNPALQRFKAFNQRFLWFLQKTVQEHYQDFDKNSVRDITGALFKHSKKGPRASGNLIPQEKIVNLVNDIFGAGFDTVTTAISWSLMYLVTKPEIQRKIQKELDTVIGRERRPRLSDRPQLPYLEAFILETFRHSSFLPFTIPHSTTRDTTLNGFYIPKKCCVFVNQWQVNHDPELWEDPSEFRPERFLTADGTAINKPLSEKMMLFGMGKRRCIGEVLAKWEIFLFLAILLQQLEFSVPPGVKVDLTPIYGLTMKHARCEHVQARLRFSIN
As to conditions: calculated from ISEF (0.69) and CLint,rhCYP.

For data set [4] the following is noted: Chinese cancer volunteers; cited from earlier work.
In data set [5] the target is T1, CYP3A5. As to conditions: calculated from ISEF (0.43) and CLint,rhCYP.
The conditions of data set [6]: victim erlotinib, cancer subjects; cited from earlier work.
In data set [7] the target is T2, CYP1A2. As to the kind of experiment: biochemical.

Each structure is given as a SMILES string. pKi: −log10 of the molar value.

These results are taken from publication PMC11490238 (Drug Design, Development and Therapy, 2024).

The pKi is the Ki on a negative log10 scale, so that one unit is a factor of ten. Higher therefore signals a small Ki. As a reminder, the microsomal CLint is the rate of metabolic loss divided by the concentration.

T1 sequence (P20815 whole entry): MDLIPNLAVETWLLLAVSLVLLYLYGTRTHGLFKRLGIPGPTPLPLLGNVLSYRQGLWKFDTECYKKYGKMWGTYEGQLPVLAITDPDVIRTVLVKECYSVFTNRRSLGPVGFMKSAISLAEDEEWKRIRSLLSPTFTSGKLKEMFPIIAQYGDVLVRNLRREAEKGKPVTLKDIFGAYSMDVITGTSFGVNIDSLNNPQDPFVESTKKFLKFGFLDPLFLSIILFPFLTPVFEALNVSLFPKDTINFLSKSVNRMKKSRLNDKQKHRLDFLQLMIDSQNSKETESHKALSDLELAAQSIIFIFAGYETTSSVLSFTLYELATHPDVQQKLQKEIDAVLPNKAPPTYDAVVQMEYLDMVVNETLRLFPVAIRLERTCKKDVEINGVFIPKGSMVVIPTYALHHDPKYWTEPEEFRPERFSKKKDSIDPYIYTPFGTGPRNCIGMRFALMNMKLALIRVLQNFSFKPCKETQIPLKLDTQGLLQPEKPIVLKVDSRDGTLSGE
human recombinant CYP3A4, sequence (P08684 whole entry): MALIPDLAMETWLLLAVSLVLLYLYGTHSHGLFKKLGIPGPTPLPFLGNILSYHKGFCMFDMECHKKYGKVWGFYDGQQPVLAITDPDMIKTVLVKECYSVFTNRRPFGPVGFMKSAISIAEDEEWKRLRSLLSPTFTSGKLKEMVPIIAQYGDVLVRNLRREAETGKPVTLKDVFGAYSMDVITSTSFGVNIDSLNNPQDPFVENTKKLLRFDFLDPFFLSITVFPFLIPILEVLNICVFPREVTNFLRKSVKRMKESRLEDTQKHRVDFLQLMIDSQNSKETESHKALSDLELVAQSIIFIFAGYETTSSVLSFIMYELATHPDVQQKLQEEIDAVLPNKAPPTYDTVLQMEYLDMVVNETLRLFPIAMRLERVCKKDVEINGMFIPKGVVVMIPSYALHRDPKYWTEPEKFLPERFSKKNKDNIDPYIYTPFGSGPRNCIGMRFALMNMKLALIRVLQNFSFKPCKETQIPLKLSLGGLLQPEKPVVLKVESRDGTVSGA

Consider `CC(=O)N1CCN(c2ccc(OCC3COC(Cn4ccnc4)(c4ccc(Cl)cc4Cl)O3)cc2)CC1` (stereo not drawn) [ketoconazole], for which the “Inhibition mechanism (Lineweaver-Burk plots)” value (shortened to “Inhibition mechanism”) in the data set on HLM is reported as “mixed inhibitors”.

On to `CC[C@H]1OC(=O)[C@H](C)[C@@H](O[C@H]2C[C@@](C)(OC)[C@@H](O)[C@H](C)O2)[C@H](C)[C@@H](O[C@@H]2O[C@H](C)C[C@H](N(C)C)[C@H]2O)[C@](C)(OC)C[C@@H](C)C(=O)[C@H](C)[C@@H](O)[C@]1(C)O` [clarithromycin], for which the pKi in data set [1] was 5.52; at CYP3A5 [2] it was 5.16. Moreover, the “Inhibition mechanism” value in the data set with HLM is reported as “mixed inhibitors”.

For the compound `COc1cc2c(Oc3ccc4[nH]c(C)cc4c3F)ccnc2cc1OCC1(N)CC1` [Anlotinib], the “fm, share of anlotinib metabolized by CYP3A4” value at human recombinant CYP3A4 is 35%. In addition, in the data set “in vitro”, the microsomal CLint is 18 µL/min/mg. The P-gp substrate characteristics result with P-gp was “non-substrate”. In addition, the “fm, share of anlotinib metabolized by CYP1A2” value at CYP1A2 [3] is 35%. In addition, the CLpo in data set [4] is 11.014 L/h. Further, the “fm, share of anlotinib metabolized by CYP3A5” value on CYP3A5 [5] is reported as 29%.

Regarding `CO[C@H]1/C=C/O[C@@]2(C)Oc3c(C)c(O)c4c(O)c(c(/C=N/N5CCN(C)CC5)c(O)c4c3C2=O)NC(=O)/C(C)=C\C=C\[C@H](C)[C@H](O)[C@@H](C)[C@@H](O)[C@@H](C)[C@H](OC(C)=O)[C@@H]1C` [rifampicin], in [6], the “AUC0–∞ of erlotinib reduced to (fold) by the labelled perpetrator” value is 0.33 fold and the “Cmax of erlotinib reduced to (fold) by the labelled perpetrator” value is 0.71 fold.

Regarding `C[C@H]1COc2c(N3CCN(C)CC3)c(F)cc3c(=O)c(C(=O)O)cn1c23` [levofloxacin], the results for the negative logarithm of the Ki (pKi) (in [1]; at CYP1A2 [7]) were 5.31 and 5.33, respectively. For the same compound, the “Inhibition mechanism” value in the data set on HLM is “mixed inhibitors”.
